Data on six molecules can be found in patent publication US20150150768A1, “Furan Based Composition” (Los Alamos National Security LLC, priority 2013, published 2015).

The nature of data set [1]: Solubility of system at 1 wt % with hardness. The format is physicochemical. The text has this:
Stock solutions of all species were made at 1% by weight in deionized water. […] […] […] Additionally a modified LAS (MLAS) was chosen for comparison.

Data set [2] is described as follows: Dynamic interfacial tension analysis (dIFT), ascending canola oil drop in aqueous surfactant solution. The format is physicochemical. Particulars: 200 ppm surfactant, pH 8.3-8.5, canola oil. How it is done: Method—Dynamic Interfacial Tension Analysis (dIFT) Dynamic Interfacial Tension analysis was performed on a Krüss® DVT30 Drop Volume Tensiometer (Krüss USA, Charlotte, N.C.). The instrument was configured to measure the interfacial tension of an ascending oil drop in the aqueous surfactant solution. The oil used was canola oil (Crisco Pure Canola Oil manufactured by The J.M. Smucker Company). The aqueous surfactant and oil phases were temperature controlled at 21.1° C. (+/−1° C.), via a recirculating water temperature controller attached to the tensiometer. A dynamic interfacial tension curve was generated by dispensing the oil drops into the aqueous surfactant phase from an ascending capillary with an internal diameter of 0.2540 mm, over a range of flow rates and measuring the interfacial tension at each flow rate. Data is generated at oil dispensing flow rates of 500 μL/min to 1 μL/min with 2 flow rates per decade on a logarithmic scale (7 flow rates measured in this instance). Interfacial tension was measured on three oil drops per flow rate and then averaged. Interfacial tension was reported in units of mN/m. Surface age of the oil drops at each flow rate is also recorded and plots can be generated either of interfacial tension (y-axis) versus oil flow rate (x-axis) or interfacial tension (y-axis) versus oil drop surface age (x-axis). […] Example of analysis of a 200 ppm surfactant concentration, with water hardness (3:1 Ca:Mg) of 6 or 20 grains per gallon (gpg) as noted, 21.1° C., pH 8.3-8.5: Sample was analyzed as described above. Density settings for 21.1° C. were set at 0.917 g/ml for Canola Oil and 0.998 g/ml for aqueous surfactant phase (assumed to be the same as water since dilute solution). To a 100 ml volumetric flask was added 2.00 mL of 1% (wt/wt) Surfactant solution in deionized water and the volumetric is then filled to the mark with 6.12 gpg water for target 6 gpg solution or 20.408 gpg water for target 20 gpg solution, (3:1 CaCl2:MgCl2 solution) and mixed well. The solution was transferred to a beaker and the pH adjusted to 8.3-8.5 by addition of a few drops of 0.1 N NaOH or 0.1 N H2SO4. The solution is then loaded into the tensiometer measurement cell and analyzed. Total time from addition of hardness to surfactant to time loaded into tensiometer is 5 minutes. The following surfactants were analyzed via dIFT measurements. Surfactants were analyzed at a level of 200 ppm. Analysis conditions are in water of both 6 and 20 gpg Calcium/Magnesium water hardness level (3:1 calcium:magnesium), 21.1° C. and adjusted to pH 8.3-8.5.

The mark [3] stands for this setting: 1% solution by weight in deionized water.
Setting [4] is: 1% solution by weight in deionized water, heated to approximately 55° C.
The mark [5] stands for this setting: aliquot of 1% solution diluted to 200 ppm with 6.122 gpg water.
Setting [6] is: solution hardness 6 gpg (3:1 Calcium:Magnesium).
[7] abbreviates: solution hardness 20 gpg (3:1 Calcium:Magnesium).

Read-outs that look alike come from different tables or passages of the source.

With “sodium 5-dodecanfuran-2-sulfonate [C12 1-furan AFS]”, in data set [1] (setting [3]), the “Soluble at Room Temperature” value is given as “No”. For the same molecule, the “Soluble after heating to ≈55° C.” value in data set [1] (setting [4]) was “Yes”. In data set [1] (setting [5]), the “Soluble after addition of 6 gpg hardness (for at least 30 minutes)” value (“Soluble after addition of 6 gpg hardness” below) is “Yes”.

Regarding `CCCCCCCCCCCCCc1ccc(S(=O)(=O)[O-])o1.[Na+]` [C13 1-furan AFS, sodium 5-tridecanfuran-2-sulfonate], in data set [1], the “Soluble after addition of 6 gpg hardness” value is given as “Yes”, the “Soluble after heating to ≈55° C.” value is reported as “Yes” and the “Soluble at Room Temperature” value was “No”. Further, in data set [2] (setting [6]), the “IFT @ 1 μL/min Oil Flowrate, 21.1° C.” value worked out at 0.08 mN/m. For the same molecule, the “IFT @ 1 μL/min Oil Flowrate, 21.1° C.” value in data set [2] (setting [7]) is recorded as 0.08 mN/m.

With `CCCCCCCCCCC(C)c1ccc(S(=O)(=O)O)cc1` (centres unmarked) [C12 2-phenyl LAS, reference compound], the “Soluble at Room Temperature” value in data set [1] (setting [3]) is given as “No”. For the same molecule, the “Soluble after heating to ≈55° C.” value in data set [1] (setting [4]) was “Yes”. In addition, in data set [1] (setting [5]), the “Soluble after addition of 6 gpg hardness” value is “did not remain soluble and No”.

`CCCCCCCCCC(C)c1ccc(S(=O)(=O)[O-])o1.[Na+]` (centres unmarked) [C11 2-furan AFS, sodium 5-(undecan-2-yl)furan-2-sulfonate]: in data set [1] (setting [3]), the “Soluble at Room Temperature” value is listed as “Yes”. Further, the “Soluble after heating to ≈55° C.” value in data set [1] (setting [4]) was “Yes”. Also, the “Soluble after addition of 6 gpg hardness” value in data set [1] (setting [5]) is given as “Yes”. For the same molecule, the “IFT @ 1 μL/min Oil Flowrate, 21.1° C.” value was found to be 7.25 mN/m in data set [2] (setting [6]) and 4.03 mN/m in data set [2] (setting [7]).

In the case of `CCCCCCCCCCCCc1ccc(S(=O)(=O)[O-])o1.[Na+]` [C12 1-furan AFS, sodium 5-dodecanfuran-2-sulfonate], the “IFT @ 1 μL/min Oil Flowrate, 21.1° C.” value in data set [2] (setting [6]) is reported as 0.31 mN/m; in data set [2] (setting [7]), 0.25 mN/m.

Regarding `CCCCCCCCCCC(C)c1ccc(S(=O)(=O)[O-])o1.[Na+]` (centres unmarked) [C12 2-furan AFS, sodium 5-(dodecan-2-yl)furan-2-sulfonate], in data set [1] (setting [3]), the “Soluble at Room Temperature” value is “Yes”. Further, in data set [1] (setting [4]), the “Soluble after heating to ≈55° C.” value is listed as “Yes”. Besides, the “Soluble after addition of 6 gpg hardness” value in data set [1] (setting [5]) was “Yes”. For the same molecule, the results for the “IFT @ 1 μL/min Oil Flowrate, 21.1° C.” value in data set [2] (setting [6]) and in data set [2] (setting [7]) were 1.15 mN/m and 0.94 mN/m, respectively.
